In PMC3371188 (Applied Microbiology and Biotechnology, 2012):

Molecular target: AldO (Streptomyces coelicolor, UniProt Q9ZBU1)
Experiment: HRP-coupled H2O2 assay, thermostability and temperature optimum
Assay type: biochemical
Details: 10 mM xylitol; 50 mM potassium phosphate pH 7.5

Chain of AldO (Q9ZBU1 whole entry): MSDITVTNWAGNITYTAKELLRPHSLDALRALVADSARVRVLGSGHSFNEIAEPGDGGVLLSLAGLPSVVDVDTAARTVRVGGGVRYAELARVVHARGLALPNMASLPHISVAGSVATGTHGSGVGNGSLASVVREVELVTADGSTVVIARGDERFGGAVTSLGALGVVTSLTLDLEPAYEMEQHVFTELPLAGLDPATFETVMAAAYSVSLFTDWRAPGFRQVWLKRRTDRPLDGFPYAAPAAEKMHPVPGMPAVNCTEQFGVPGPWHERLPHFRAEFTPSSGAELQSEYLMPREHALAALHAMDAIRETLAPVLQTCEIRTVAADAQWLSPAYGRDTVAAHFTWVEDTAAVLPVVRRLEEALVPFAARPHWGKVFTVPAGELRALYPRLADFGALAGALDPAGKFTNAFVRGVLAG

In the case of `OC[C@@H](O)[C@H](O)[C@@H](O)CO` [xylitol], the “HRP-coupled H2O2 assay, thermostability and temperature optimum” value is reported as “Oxidase activity with xylitol as substrate was measured after enzyme solutions had been incubated”.
